Here are results for 86 substances from patent US20250213707A1, “COMPOUND FOR INCREASING EFFICACY OF ONCOLYTIC VIRUSES” (ABLEVIA BIOTECH GMBH, priority 2022, published 2025).

One assay concerns polyclonal antibody ab6982. Put plainly: Epitope mapping of polyclonal antibody ab6982 against cyclic peptides of Ad5 fiber and hexon (peptide array). Type of assay: binding, rabbits. To be noted: cyclic peptides of fiber protein (clusters 1-7). From the text:
Polyclonal antibody ab6982 (Abcam) was generated by immunizing rabbits with purified AdV. It reacts with all capsid proteins of Ad5 including hexon, fiber and penton. It was shown that the antibody neutralizes Ad5 infection in a bioassay at 1000 adenovirus 5 particles/ml, a 50% inactivation of the adenovirus can be achieved at a 1/25,000 dilution of the antibody. In order to identify epitopic regions that could contain peptides for ab6982 paratope binding, the antibody was mapped against the sequences of fiber (NCBI Reference Sequence: AP 000226.1) and hexon protein (GenBank: BAG48782.1). […] The binding signal of this antibody to the array yielded several peptides that were aligned and clustered against the sequence of the protein. The peptide clusters were named cluster1-7 (fiber protein) and clusters8-16 (hexon protein) according to their ranked order of cyclic peptide hits (i.e. cluster contains the strongest binders, cluster2 the second strongest etc.). Below are the aligments of the corresponding peptides that bind to polyclonal antibody ab6982.
Consider 196 (SYTFSYI) [compound 196], for which the “antibody binding signal ranking from the microarray experiment” value (shortened to “antibody binding signal ranking”) worked out at 064.

For 183 (NNSFLDPEYWNFR) [compound 183], the “antibody binding signal ranking” value is 034.

In the case of 184 (FLDPEYW) [compound 184], the “antibody binding signal ranking” value is given as 050.

For 182 (LNNSFLDPEYWNF) [compound 182], the “antibody binding signal ranking” value is given as 033.

For 194 (FATSSYTFSY) [compound 194], the “antibody binding signal ranking” value turned out to be 043.

For 191 (LNNSFLD) [compound 191], the “antibody binding signal ranking” value came to 180.

As for 204 (NYINEIFATSSYT) [compound 204], the “antibody binding signal ranking” value is given as 119.

For the substance 174 (SWDWSGHNYI) [compound 174], the “antibody binding signal ranking” value was determined as 149.

As for 193 (SSYTFSY) [compound 193], the “antibody binding signal ranking” value was 042.

As to 175 (AYSMSFS) [compound 175], the “antibody binding signal ranking” value is reported as 167.

As for 190 (LDPEYWNFRN) [compound 190], the “antibody binding signal ranking” value was found to be 155.

On to 188 (EYWNFRN) [compound 188], for which the “antibody binding signal ranking” value was found to be 113.

In the case of 201 (HNYINEIFATSSY) [compound 201], the “antibody binding signal ranking” value came out at 099.

Turning to 173 (SMSFSWD) [compound 173], the “antibody binding signal ranking” value amounted to 144.

189 (LNNSFLDPEY) [compound 189]: the “antibody binding signal ranking” value amounted to 114.

Consider 178 (SWDWSGH) [compound 178], for which the “antibody binding signal ranking” value is 193.

As to 205 (YINEIFA) [compound 205], the “antibody binding signal ranking” value came out at 168.

As to 177 (FSWDWSG) [compound 177], the “antibody binding signal ranking” value is on record as 186.

Staying with this assay, now noted: cyclic peptides of hexon protein (clusters 8-16).
In the case of 262 (AATALEINLE) [compound 262], the “antibody binding signal ranking” value was found to be 043.

217 (DEAATALEINLEE) [compound 217]: the “antibody binding signal ranking” value is listed as 11.

On to 248 (EEEDDDNEDE) [compound 248], for which the “antibody binding signal ranking” value was determined as 097.

Consider 311 (QMLANYNIGYQGF) [compound 311], for which the “antibody binding signal ranking” value is given as 190.

Regarding 274 (ETPDTHI) [compound 274], the “antibody binding signal ranking” value is 051.

As for 242 (DDNEDEVDEQ) [compound 242], the “antibody binding signal ranking” value is given as 057.

With 233 (NEDEVDEQAEQQK) [compound 233], the “antibody binding signal ranking” value is 25.

On to 263 (EWDEAATALEINL) [compound 263], for which the “antibody binding signal ranking” value was 112.

As to 238 (LEEEDDDNED) [compound 238], the “antibody binding signal ranking” value is on record as 034.

Regarding 267 (KVVLYSEDVDIET) [compound 267], the “antibody binding signal ranking” value is recorded as 044.

As for 290 (YSFFRNF) [compound 290], the “antibody binding signal ranking” value is reported as 104.

As for 222 (INLEEEDDDN) [compound 222], the “antibody binding signal ranking” value came out at 23.

As for 256 (DNEDEVDEQAEQQ) [compound 256], the “antibody binding signal ranking” value was 031.

In the case of 210 (EAATALEINLEEE) [compound 210], the “antibody binding signal ranking” value is on record as 03.

For 293 (ESYKDRMYSF) [compound 293], the “antibody binding signal ranking” value stood at 127.

For 278 (EDVDIETPDTHIS) [compound 278], the “antibody binding signal ranking” value is given as 056.

For 212 (TALEINLEEEDDD) [compound 212], the “antibody binding signal ranking” value amounted to 05.

Take 216 (TALEINLEEE) [compound 216]: the “antibody binding signal ranking” value is recorded as 09.

258 (EVDEQAEQQKTHV) [compound 258]: the “antibody binding signal ranking” value is reported as 038.

For the substance 287 (IETPDTHISYMP) [compound 287], the “antibody binding signal ranking” value is listed as 159.

Regarding 239 (INLEEEDDDNEDE) [compound 239], the “antibody binding signal ranking” value came out at 035.

On to 260 (ALEINLE) [compound 260], for which the “antibody binding signal ranking” value was determined as 033.

Take 246 (DDDNEDEVDE) [compound 246]: the “antibody binding signal ranking” value is reported as 087.

Turning to 234 (DEVDEQAEQQ) [compound 234], the “antibody binding signal ranking” value is reported as 26.

Consider 280 (YSEDVDIETPDTH) [compound 280], for which the “antibody binding signal ranking” value was 059.

224 (DEVDEQA) [compound 224]: the “antibody binding signal ranking” value stood at 10.

For 245 (DDNEDEV) [compound 245], the “antibody binding signal ranking” value is given as 078.

Turning to 283 (DIETPDT) [compound 283], the “antibody binding signal ranking” value was 062.

In the case of 301 (DSIGDRTRYFSMW) [compound 301], the “antibody binding signal ranking” value is recorded as 100.

Take 310 (NIGYQGF) [compound 310]: the “antibody binding signal ranking” value was found to be 187.

Take 279 (IETPDTHISY) [compound 279]: the “antibody binding signal ranking” value was found to be 058.

Turning to 266 (LYSEDVDIETPDT) [compound 266], the “antibody binding signal ranking” value is 040.

In the case of 237 (INLEEED) [compound 237], the “antibody binding signal ranking” value is listed as 032.

Regarding 232 (DEVDEQAEQQKTH) [compound 232], the “antibody binding signal ranking” value was 24.

As to 215 (LEINLEEEDD) [compound 215], the “antibody binding signal ranking” value came out at 08.

Take 235 (EINLEEEDDDNED) [compound 235]: the “antibody binding signal ranking” value amounted to 028.

Take 226 (DDNEDEVDEQAEQ) [compound 226]: the “antibody binding signal ranking” value is 16.

With 276 (DVDIETPDTH) [compound 276], the “antibody binding signal ranking” value is on record as 054.

In the case of 213 (EINLEEE) [compound 213], the “antibody binding signal ranking” value is 06.

Turning to 296 (PESYKDRMYSFFR) [compound 296], the “antibody binding signal ranking” value was determined as 153.

As to 209 (ATALEINLEEEDD) [compound 209], the “antibody binding signal ranking” value amounted to 02.

Consider 303 (DRMYSFFRNF) [compound 303], for which the “antibody binding signal ranking” value is listed as 072.

For 281 (VDIETPDTHISYM) [compound 281], the “antibody binding signal ranking” value amounted to 060.

On to 219 (AATALEINLEEED) [compound 219], for which the “antibody binding signal ranking” value came out at 14.

Take 288 (DRMYSFFRNF) [compound 288]: the “antibody binding signal ranking” value came out at 072.

With 250 (EDDDNEDEVD) [compound 250], the “antibody binding signal ranking” value came to 121.

As to 273 (SEDVDIETPDTHI) [compound 273], the “antibody binding signal ranking” value is 050.

Take 251 (EDEVDEQ) [compound 251]: the “antibody binding signal ranking” value stood at 126.

For the substance 223 (NLEEEDDDNE) [compound 223], the “antibody binding signal ranking” value is on record as 27.

Regarding 254 (EEEDDDNEDEVDE) [compound 254], the “antibody binding signal ranking” value stood at 188.

As for 275 (VLYSEDVDIETPD) [compound 275], the “antibody binding signal ranking” value was determined as 052.

On to 285 (EDVDIETPDT) [compound 285], for which the “antibody binding signal ranking” value is 070.

As for 289 (DRMYSFF) [compound 289], the “antibody binding signal ranking” value is reported as 086.

220 (EINLEEEDDD) [compound 220]: the “antibody binding signal ranking” value was 15.

Consider 271 (DVDIETPDTHISY) [compound 271], for which the “antibody binding signal ranking” value stood at 048.

As for 292 (SYKDRMYSFF) [compound 292], the “antibody binding signal ranking” value turned out to be 120.

With 308 (IGYQGFY) [compound 308], the “antibody binding signal ranking” value was 136.

With 300 (DSIGDRTRYF) [compound 300], the “antibody binding signal ranking” value was 095.

As for 304 (SYKDRMYSFFRNF) [compound 304], the “antibody binding signal ranking” value is reported as 099.

As for 309 (FLVQMLANYNIGY) [compound 309], the “antibody binding signal ranking” value came out at 184.

For the substance 282 (PKVVLYSEDVDIE) [compound 282], the “antibody binding signal ranking” value was 061.

On to 218 (LEINLEEEDDDNE) [compound 218], for which the “antibody binding signal ranking” value was determined as 13.

Consider 295 (YIPESYKDRMYSF) [compound 295], for which the “antibody binding signal ranking” value came out at 152.

With 243 (EDDDNED) [compound 243], the “antibody binding signal ranking” value was determined as 063.

For the substance 244 (NLEEEDD) [compound 244], the “antibody binding signal ranking” value was 065.

On to 294 (KDRMYSF) [compound 294], for which the “antibody binding signal ranking” value was 143.

Regarding 228 (DNEDEVDEQA) [compound 228], the “antibody binding signal ranking” value is listed as 18.

As to 299 (GDRTRYF) [compound 299], the “antibody binding signal ranking” value turned out to be 080.
